Measured values: patent US20050009840A1 (SUGEN, INC., priority 2003, published 2005)

These compounds were tested against T1, HGFR (Homo sapiens, UniProt P08581) (assay: HGFR continuous-coupled spectrophotometric assay). Settings: at 1 μM; Table 8, library procedure 43; read-out: % Inhibition (percent c-MET inhibition).
T1 construct: purchased Upstate 14-526
Format: biochemical

T1 sequence (P08581 974-1390 limits assumed): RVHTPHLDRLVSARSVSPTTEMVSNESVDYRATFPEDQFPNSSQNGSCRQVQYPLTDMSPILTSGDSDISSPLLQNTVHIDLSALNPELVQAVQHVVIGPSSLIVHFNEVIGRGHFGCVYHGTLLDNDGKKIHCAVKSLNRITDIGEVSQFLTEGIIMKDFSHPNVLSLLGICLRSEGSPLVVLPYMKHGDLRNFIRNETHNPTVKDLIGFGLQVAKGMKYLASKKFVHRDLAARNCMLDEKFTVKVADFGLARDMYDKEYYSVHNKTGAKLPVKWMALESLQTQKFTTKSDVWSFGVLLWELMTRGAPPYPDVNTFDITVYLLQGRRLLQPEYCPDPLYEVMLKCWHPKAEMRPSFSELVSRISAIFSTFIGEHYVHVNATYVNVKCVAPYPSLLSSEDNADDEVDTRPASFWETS

**Q.** CC1CN(C(=O)c2ccc(-c3cnc(N)c(OCc4nccn4Cc4ccccc4)c3)cc2)CC(C)N1 (stereo not shown) was tested. Which inhibition at 1 µM did it give?
**A.** 11%

**Q.** How did the inhibition at 1 µM turn out when CC1CN(C(=O)c2ccc(-c3cnc(N)c(OCc4ccc(C#N)cc4)c3)cc2)CC(C)N1 (stereo not shown) was run?
**A.** 13%

**Q.** CC1CN(C(=O)c2ccc(-c3cnc(N)c(OCc4cccc(C#N)c4)c3)cc2)CC(C)N1 (stereo not shown) was tested. Which inhibition at 1 µM did it give?
**A.** 11%

**Q.** With CC1CN(C(=O)c2ccc(-c3cnc(N)c(OCc4cc(Cl)ccc4Cl)c3)cc2)CC(C)N1 (stereo not shown) as the compound, how does the inhibition at 1 µM read?
**A.** 32%

**Q.** How did the inhibition at 1 µM turn out when CC1CN(C(=O)c2ccc(-c3cnc(N)c(OCc4nc(CS(=O)(=O)c5ccccn5)no4)c3)cc2)CC(C)N1 (stereo not shown) was run?
**A.** 16%

**Q.** With CC1CN(C(=O)c2ccc(-c3cnc(N)c(OCc4cc(-c5c(Cl)cccc5Cl)no4)c3)cc2)CC(C)N1 (stereo not shown) as the compound, how does the inhibition at 1 µM read?
**A.** 16%

**Q.** For CC1CN(C(=O)c2ccc(-c3cnc(N)c(OCc4cccc(OC(F)(F)F)c4)c3)cc2)CC(C)N1 (stereo not shown), which inhibition at 1 µM is on record?
**A.** 17%

**Q.** Cc1cc(COc2cc(-c3ccc(C(=O)N4CC(C)NC(C)C4)cc3)cnc2N)nc(-c2ccc(C(F)(F)F)cn2)n1 (stereo not shown) was tested. Which inhibition at 1 µM did it give?
**A.** 7%

**Q.** Which inhibition at 1 µM does the source give for CC1CN(C(=O)c2ccc(-c3cnc(N)c(OCc4cc(F)ccc4Br)c3)cc2)CC(C)N1 (stereo not shown) here?
**A.** 21%

**Q.** How did the inhibition at 1 µM turn out when CC1CN(C(=O)c2ccc(-c3cnc(N)c(OCc4cccc(Cl)c4F)c3)cc2)CC(C)N1 (stereo not shown) was run?
**A.** 28%

**Q.** With CC1CN(C(=O)c2ccc(-c3cnc(N)c(OCc4ccc(Cl)c(Cl)c4)c3)cc2)CC(C)N1 (stereo not shown) as the compound, how does the inhibition at 1 µM read?
**A.** 29%

**Q.** Which inhibition at 1 µM does the source give for CC1CN(C(=O)c2ccc(-c3cnc(N)c(OCc4cc(F)c(F)cc4F)c3)cc2)CC(C)N1 (stereo not shown) here?
**A.** 20%

**Q.** How did the inhibition at 1 µM turn out when CC1CN(C(=O)c2ccc(-c3cnc(N)c(OCc4ccc(F)c(F)c4F)c3)cc2)CC(C)N1 (stereo not shown) was run?
**A.** 25%

**Q.** Which inhibition at 1 µM does the source give for CC1CN(C(=O)c2ccc(-c3cnc(N)c(OCc4ccc(C(F)(F)F)cc4C(F)(F)F)c3)cc2)CC(C)N1 (stereo not shown) here?
**A.** 22%

**Q.** With CC1CN(C(=O)c2ccc(-c3cnc(N)c(OCc4c(F)ccc(F)c4F)c3)cc2)CC(C)N1 (stereo not shown) as the compound, how does the inhibition at 1 µM read?
**A.** 41%

**Q.** Cc1cccc(COc2cc(-c3ccc(C(=O)N4CC(C)NC(C)C4)cc3)cnc2N)c1F (stereo not shown) was tested. Which inhibition at 1 µM did it give?
**A.** 28%

**Q.** Which inhibition at 1 µM does the source give for CC1CN(C(=O)c2ccc(-c3cnc(N)c(OCc4ccc(-c5csnn5)cc4)c3)cc2)CC(C)N1 (stereo not shown) here?
**A.** 17%

**Q.** For CC1CN(C(=O)c2ccc(-c3cnc(N)c(OCc4cc(F)cc(C(F)(F)F)c4)c3)cc2)CC(C)N1 (stereo not shown), which inhibition at 1 µM is on record?
**A.** 19%

**Q.** CC1CN(C(=O)c2ccc(-c3cnc(N)c(OCc4c(F)cccc4C(F)(F)F)c3)cc2)CC(C)N1 (stereo not shown) was tested. Which inhibition at 1 µM did it give?
**A.** 33%

**Q.** CC1CN(C(=O)c2ccc(-c3cnc(N)c(OCc4cc(F)c(F)c(F)c4)c3)cc2)CC(C)N1 (stereo not shown) was tested. Which inhibition at 1 µM did it give?
**A.** 11%

**Q.** CC1CN(C(=O)c2ccc(-c3cnc(N)c(OCc4ccccc4OC(F)F)c3)cc2)CC(C)N1 (stereo not shown) was tested. Which inhibition at 1 µM did it give?
**A.** 24%

**Q.** CC1CN(C(=O)c2ccc(-c3cnc(N)c(OCc4ccc(C(F)(F)F)cc4F)c3)cc2)CC(C)N1 (stereo not shown) was tested. Which inhibition at 1 µM did it give?
**A.** 24%

**Q.** CC1CN(C(=O)c2ccc(-c3cnc(N)c(OCc4ccc(Br)cc4F)c3)cc2)CC(C)N1 (stereo not shown) was tested. Which inhibition at 1 µM did it give?
**A.** 29%

**Q.** Which inhibition at 1 µM does the source give for CC1CN(C(=O)c2ccc(-c3cnc(N)c(OCc4cc(Br)cc(Br)c4)c3)cc2)CC(C)N1 (stereo not shown) here?
**A.** 42%

**Q.** Which inhibition at 1 µM does the source give for CC1CN(C(=O)c2ccc(-c3cnc(N)c(OCc4ccc(-c5ccccc5C#N)cc4)c3)cc2)CC(C)N1 (stereo not shown) here?
**A.** 73%

**Q.** How did the inhibition at 1 µM turn out when CC1CN(C(=O)c2ccc(-c3cnc(N)c(OCc4cccc(F)c4F)c3)cc2)CC(C)N1 (stereo not shown) was run?
**A.** 19%

**Q.** CC1CN(C(=O)c2ccc(-c3cnc(N)c(OCc4ncc(C(F)(F)F)cc4Cl)c3)cc2)CC(C)N1 (stereo not shown) was tested. Which inhibition at 1 µM did it give?
**A.** 17%

**Q.** With Cc1noc(C)c1-c1nc(COc2cc(-c3ccc(C(=O)N4CC(C)NC(C)C4)cc3)cnc2N)no1 (stereo not shown) as the compound, how does the inhibition at 1 µM read?
**A.** 14%

**Q.** How did the inhibition at 1 µM turn out when COc1ccccc1-c1nc(COc2cc(-c3ccc(C(=O)N4CC(C)NC(C)C4)cc3)cnc2N)no1 (stereo not shown) was run?
**A.** 9%

**Q.** CC1CN(C(=O)c2ccc(-c3cnc(N)c(OCc4noc(-c5cccc(C(F)(F)F)c5)n4)c3)cc2)CC(C)N1 (stereo not shown) was tested. Which inhibition at 1 µM did it give?
**A.** 30%

**Q.** For CC1CN(C(=O)c2ccc(-c3cnc(N)c(OCc4nsc(Cl)n4)c3)cc2)CC(C)N1 (stereo not shown), which inhibition at 1 µM is on record?
**A.** 6%

**Q.** With CC1CN(C(=O)c2ccc(-c3cnc(N)c(OCc4cc(Cl)cc(Cl)c4)c3)cc2)CC(C)N1 (stereo not shown) as the compound, how does the inhibition at 1 µM read?
**A.** 26%

**Q.** Which inhibition at 1 µM does the source give for CC1CN(C(=O)c2ccc(-c3cnc(N)c(OCc4cccc(Oc5ccccc5)c4)c3)cc2)CC(C)N1 (stereo not shown) here?
**A.** 32%

**Q.** With CC1CN(C(=O)c2ccc(-c3cnc(N)c(OCc4ccc(C(=O)N5CCN(Cc6ccccc6)CC5)cc4)c3)cc2)CC(C)N1 (stereo not shown) as the compound, how does the inhibition at 1 µM read?
**A.** 15%

**Q.** For CC1CN(C(=O)c2ccc(-c3cnc(N)c(OCc4cccc(C(=O)NCCc5ccccn5)c4)c3)cc2)CC(C)N1 (stereo not shown), which inhibition at 1 µM is on record?
**A.** 18%

**Q.** With CC1CN(C(=O)c2ccc(-c3cnc(N)c(OCc4cccc(C(=O)NC5CCN(Cc6ccccc6)C5)c4)c3)cc2)CC(C)N1 (stereo not shown) as the compound, how does the inhibition at 1 µM read?
**A.** 18%

**Q.** Which inhibition at 1 µM does the source give for CC1CN(C(=O)c2ccc(-c3cnc(N)c(OCc4ccc(C(=O)NCCc5ccccn5)cc4)c3)cc2)CC(C)N1 (stereo not shown) here?
**A.** 19%

**Q.** For CC1CN(C(=O)c2ccc(-c3cnc(N)c(OCc4ccc(C(=O)NCCN5CCCC5)cc4)c3)cc2)CC(C)N1 (stereo not shown), which inhibition at 1 µM is on record?
**A.** 12%

**Q.** For CCN1CCCC1CNC(=O)c1cccc(COc2cc(-c3ccc(C(=O)N4CC(C)NC(C)C4)cc3)cnc2N)c1 (stereo not shown), which inhibition at 1 µM is on record?
**A.** 10%

Same assay, conditions: cells prefixed Ki; read-out: Met Ki

**Q.** Which Ki does the source give for CC(Oc1cc(C#CC(C)(C)NC(=O)N2CCN(C)CC2)cnc1N)c1c(Cl)ccc(F)c1Cl (stereo not shown) [Example I-432, 4-Methyl-piperazine-1-carboxylic acid (3-{6-amino-5-[1-(2,6-dichloro-3-fluoro-phenyl)-ethoxy]-pyridin-3-yl}-1,1-dimethyl-prop-2-ynyl)-amide] here?
**A.** 0.61 µM

**Q.** Which Ki does the source give for CC(Oc1cc(C#CC(C)(C)NC(=O)N2C[C@@H](C)N[C@@H](C)C2)cnc1N)c1c(Cl)ccc(F)c1Cl (stereo partly drawn) [Example I-433, (3R,5S)-3,5-Dimethyl-piperazine-1-carboxylic acid (3-{6-amino-5-[1-(2,6-dichloro-3-fluoro-phenyl)-ethoxy]-pyridin-3-yl}-1,1-dimethyl-prop-2-ynyl)-amide] here?
**A.** 1.5 µM

**Q.** With CC(Oc1cc(C#CC(C)(C)NC(=O)N2CCC[C@@H]2CN2CCCC2)cnc1N)c1c(Cl)ccc(F)c1Cl (stereo partly drawn) [Example I-434, (R)-2-Pyrrolidin-1-ylmethyl-pyrrolidine-1-carboxylic acid (3-{6-amino-5-[1-(2,6-dichloro-3-fluoro-phenyl)-ethoxy]-pyridin-3-yl}-1,1-dimethyl-prop-2-ynyl)-amide] as the compound, how does the Ki read?
**A.** 1.22 µM

**Q.** With CC(Oc1cc(C#CC(C)(C)NC(=O)N2CCC[C@H]2CN2CCCC2)cnc1N)c1c(Cl)ccc(F)c1Cl (stereo partly drawn) [Example I-435, (S)-2-Pyrrolidin-1-ylmethyl-pyrrolidine-1-carboxylic acid (3-{6-amino-5-[1-(2,6-dichloro-3-fluoro-phenyl)-ethoxy]-pyridin-3-yl}-1,1-dimethyl-prop-2-ynyl)-amide] as the compound, how does the Ki read?
**A.** 1.58 µM

**Q.** CC(Oc1cc(C#CC(C)(C)NC(=O)NCCN2CCOCC2)cnc1N)c1c(Cl)ccc(F)c1Cl (stereo not shown) [Example I-436, 1-(3-{6-Amino-5-[1-(2,6-dicloro-3-fluoro-phenyl)-ethoxy]-pyridin-3-yl}-1,1-dimethyl-prop-2-ynyl)-3-(2-morpholin-4-yl-ethyl)-urea] was tested. Which Ki did it give?
**A.** 1.11 µM

**Q.** How did the Ki turn out when CC(Oc1cc(C#CC(C)(C)NC(=O)NCCN2CCCC2)cnc1N)c1c(Cl)ccc(F)c1Cl (stereo not shown) [Example I-437, 1-(3-{6-Amino-5-[1-(2,6-dicloro-3-fluoro-phenyl)-ethoxy]-pyridin-3-yl}-1,1-dimethyl-prop-2-ynyl)-3-(2-pyrrolidin-1-yl-ethyl)-urea] was run?
**A.** 0.61 µM

**Q.** For CC(Oc1cc(C#CC(C)(C)NC(=O)N2CCC(N3CCCC3)CC2)cnc1N)c1c(Cl)ccc(F)c1Cl (stereo not shown) [Example I-438, 4-Pyrrolidin-1-yl-pipendine-1-carboxylic acid (3-{6-amino-5-[1-(2,6-dichloro-3-fluoro-phenyl)-ethoxy]-pyridin-3-yl}-1,1-dimethyl-prop-2-ynyl)-amide], which Ki is on record?
**A.** 0.72 µM

**Q.** For CC(Oc1cc(C#CC(=O)NC2CCCCC2)cnc1N)c1c(Cl)ccc(F)c1Cl (stereo not shown) [Example I-439, 3-{6-Amino-5-[1-(2,6-dichloro-3-fluoro-phenyl)-ethoxy]-pyridin-3-yl}-propynoic acid cyclohexylamide], which Ki is on record?
**A.** 0.46 µM

**Q.** How did the Ki turn out when CC(C)NC(=O)C#Cc1cnc(N)c(OC(C)c2c(Cl)ccc(F)c2Cl)c1 (stereo not shown) [Example I-440, 3-{6-Amino-5-[1-(2,6-dichloro-3-fluoro-phenyl)-ethoxy]-pyridin-3-yl}-propynoic acid isopropylamide] was run?
**A.** 0.43 µM

**Q.** With CC(Oc1cc(C#CC(C)(C)N)ccc1N)c1c(Cl)ccc(F)c1Cl (stereo not shown) [Example I-441, 4-(3-Amino-3-methyl-but-1-ynyl)-2-[1-(2,6-dichloro-3-fluoro-phenyl)-ethoxy]-phenylamine] as the compound, how does the Ki read?
**A.** 1.06 µM

**Q.** For C=Cc1cnc(N)c(OC(C)c2c(Cl)ccc(F)c2Cl)c1 (stereo not shown) [Example I-461, 3-[1-(2,6-Dichloro-3-fluoro-phenyl)-ethoxy]-5-vinyl-pyridin-2-ylamine], which Ki is on record?
**A.** 0.68 µM

**Q.** How did the Ki turn out when CC(Oc1cc(-c2cnn(CCN3CCCC3)c2)cnc1N)c1c(Cl)ccc(F)c1Cl (stereo not shown) [Example I-465, 3-[1-(2,6-Dichloro-3-fluoro-phenyl)-ethoxy]-5-[1-(2-pyrrolidin-1-yl-ethyl)-1H-pyrazol-4-yl]-pyridin-2-ylamine] was run?
**A.** 0.34 µM

**Q.** With CC(Oc1cc(-c2cnn(CCN(C(C)C)C(C)C)c2)cnc1N)c1c(Cl)ccc(F)c1Cl (stereo not shown) [Example I-466, 3-[1-(2,6-Dichloro-3-fluoro-phenyl)-ethoxy]-5-[1-(2-diisopropylamino-ethyl)-1H-pyrazol-4-yl]-pyridin-2-yl amine] as the compound, how does the Ki read?
**A.** 0.47 µM

**Q.** For CC(Oc1cc(-c2cnn(CCN3CCOCC3)c2)cnc1N)c1c(Cl)ccc(F)c1Cl (stereo not shown) [Example I-467, 3-[1-(2,6-Dichloro-3-fluoro-phenyl)-ethoxy]-5-[1-(2-morpholin-4-yl-ethyl)-1H-pyrazol-4-yl]-pyridin-2-ylamine], which Ki is on record?
**A.** 0.083 µM

**Q.** CC(C)Oc1c(F)cccc1COc1cc(Br)cnc1N [Example I-472, 5-Bromo-3-(3-fluoro-2-isopropoxy-benzyloxy)-pyridin-2-ylamine] was tested. Which Ki did it give?
**A.** 12.1 µM

**Q.** For CC(C)Oc1c(F)cccc1COc1cc(-c2ccc(C(=O)N3C[C@@H](C)N[C@@H](C)C3)cc2)cnc1N [Example I-473, {4-[6-Amino-5-(3-fluoro-2-isopropoxy-benzyloxy)-pyridin-3-yl]-phenyl}-((3R,5S)-3,5-dimethyl-piperazin-1-yl)-methanone], which Ki is on record?
**A.** 12.7 µM
